Assay results taken from patent publication US20080234351A1, “Combination Methods for Preserving Visual Acuity” (priority 2005, published 2008).

System: patients with type 1 or type 2 diabetes mellitus and moderately severe to very severe NPDR
Assay: Clinical Study MBCM(b): Phase 3, randomized, double-masked, placebo-controlled study; frequency of sustained moderate visual loss (SMVL)
Assay type: in vivo, humans
Details: 32 mg/d orally, SMVL = ≧15 letters loss in best-corrected ETDRS visual acuity for 6-month period (30 to 36 months)
Description: MBCM(b) is a Phase 3, multicenter, parallel, randomized, double-masked, placebo-controlled study. Language from the MBCM(b) protocol is included below.
Patients with type 1 or type 2 diabetes mellitus and an Early Treatment Diabetic Retinopathy Study (ETDRS) retinopathy level ≧47A and ≦53E in at least one eye will be eligible to participate in the study. Visual acuity (best-corrected) will be assessed using the ETDRS visual acuity protocol. Retinopathy will be assessed using ETDRS 7 standard field 30 degree color stereoscopic fundus photography. The photographs will be independently assessed by the University of Wisconsin Fundus Photograph Reading Center.
Seventy sites have enrolled patients over a 15-month period. Of the 685 patients enrolled, it is expected that approximately 580 patients will complete the study. […]
Patients may be included in the study only if they meet all of the following general criteria and have at least one eye that meets all of the eye-specific criteria: • [1] […] ETDRS retinopathy level ≧47A and ≦53E without previous panretinal photocoagulation as determined using ETDRS 7 standard field 30-degree color stereoscopic fundus photography. • [3] […] Best-corrected visual acuity score of 45 or more letters as measured using the ETDRS visual acuity protocol (ETDRS Study report number 1, Arch. Opthalmol., 103:1796-1806, 1985) in an eye that has level ≧47A and ≦53E retinopathy. […]

CN(C)C[C@@H]1CCn2cc(c3ccccc32)C2=C(C(=O)NC2=O)c2cn(c3ccccc23)CCO1 [RBX, (S)-9-((dimethylamino)methyl)-6,7,10,11-tetrahydro-9H,18H-5,21:12,17-dimethenodibenzo(e,k)pyrrolo(3,4-h)(1,4,13)oxadiazacyclohexadecine-18,20(19H)-dione]
% Of Patients with SMVL, Focal PC (patients with focal photocoagulation): 8.6%
% Of Patients with SMVL, No Focal PC (patients without focal photocoagulation): 2.7%
